Data published in US20250344698A1, “A METHOD OF CONTROLLING WEEDS” (SYNGENTA CROP PROTECTION AG, priority 2022, published 2025).

Experiments:
Assay type in all cases: in vivo
[1] = system: Amaranthus palmeri known PPO inhibitor sensitive population ('Sensitive'); experiment: Postemergence glasshouse test, dead or alive assessment, PPO inhibitor sensitive population; conditions: 14 days after application; for use rate achieving complete control (i.e. no surviving plants): 'Sensitive' population, postemergence; for Average % Survival of 14 repetitions: Sensitive
Description: (§1) The commercial standard PPO inhibitor fomesafen and compound 8 of the present application were applied to three Amaranthus palmeri populations in order to determine the impact of mutations at codon 128 in PPX2L from the wild-type arginine to a glycine or methionine.
(§2) Seeds were sown in seed trays containing ericaceous compost and covered with vermiculite. When approximately 1 inch in height plants were transplanted 1 per pot into 3 inch diameter pots containing ericaceous compost. The pots were watered and maintained in a glasshouse providing a 16 H photoperiod of 180 μmol m^−2 s^−1 with temperatures of 24° C. day and 18° C. night and 65% relative humidity until 3 inches tall at which point the herbicides were applied at the use rates specified in Table 1 below to 14 individual plants per rate of each of the biotypes.
(§3) All treatments were applied as dilutions in reverse osmosis water and with the commercial adjuvant Adigor® at 0.5% by volume. Prior to dilution with water compound 8 was initially dissolved to a 5% solution in a solvent mixture comprising 11.12% Emulsogen EL 360, 44.44% Dowanol DPM and 44.44% N-methyl pyrrolidone. Herbicide applications were carried out in a track sprayer with a flat fan nozzle applying the herbicide treatments at a rate of 200 L/ha^−1.
(§4) After treatment, the plants were watered and maintained in a glasshouse providing a 16 H photoperiod of 180 μmol m^−2 s^−1 with temperatures of 24° C. day and 18° C. night and 65% relative humidity until 14 days after application at which point they were assessed on a ‘dead or alive’ basis. The plants still alive at this point were classed as surviving the herbicide application and the averaged results of this assessment are presented in Table 1.

[2] = system: Amaranthus palmeri population homozygous for a methionine at codon 128 in PPX2L ('128M'); experiment: Postemergence glasshouse test, dead or alive assessment, 128M population; conditions: 14 days after application; for use rate achieving complete control (i.e. no surviving plants): '128M' population, postemergence; for Average % Survival of 14 repetitions: R128M
Description: as §1, §2, §3, §4

[3] = system: Amaranthus palmeri population homozygous for a glycine at codon 128 in PPX2L ('128G'); experiment: Postemergence glasshouse test, dead or alive assessment, 128G population; conditions: 14 days after application; for Average % Survival of 14 repetitions: R128G
Description: as §1, §2, §3, §4

Row | SMILES | use rate achieving complete control (i.e. no surviving plants) [1] [g ai/ha^−1] | Average % Survival of 14 repetitions ([1]; 0.25 g ai/ha^−1 postemergence) [%] | Average % Survival of 14 repetitions ([1]; 0.5 g ai/ha^−1 postemergence) [%] | Average % Survival of 14 repetitions ([1]; 1 g ai/ha^−1 postemergence) [%] | Average % Survival of 14 repetitions ([1]; 2 g ai/ha^−1 postemergence) [%] | Average % Survival of 14 repetitions ([1]; 4 g ai/ha^−1 postemergence) [%] | Average % Survival of 14 repetitions ([1]; 8 g ai/ha^−1 postemergence) [%] | Average % Survival of 14 repetitions ([1]; 16 g ai/ha^−1 postemergence) [%] | Average % Survival of 14 repetitions ([1]; 32 g ai/ha^−1 postemergence) [%] | Average % Survival of 14 repetitions ([1]; 64 g ai/ha^−1 postemergence) [%] | Average % Survival of 14 repetitions ([1]; 128 g ai/ha^−1 postemergence) [%] | use rate achieving complete control (i.e. no surviving plants) [2] [g ai/ha^−1] | Average % Survival of 14 repetitions ([2]; 0.25 g ai/ha^−1 postemergence) [%] | Average % Survival of 14 repetitions ([2]; 0.5 g ai/ha^−1 postemergence) [%] | Average % Survival of 14 repetitions ([2]; 1 g ai/ha^−1 postemergence) [%] | Average % Survival of 14 repetitions ([2]; 2 g ai/ha^−1 postemergence) [%] | Average % Survival of 14 repetitions ([2]; 4 g ai/ha^−1 postemergence) [%] | Average % Survival of 14 repetitions ([2]; 8 g ai/ha^−1 postemergence) [%] | Average % Survival of 14 repetitions ([2]; 16 g ai/ha^−1 postemergence) [%] | Average % Survival of 14 repetitions ([2]; 32 g ai/ha^−1 postemergence) [%] | also measured
1 | CCOC(=O)C1(C)CC(c2cc(-n3c(=O)cc(C(F)(F)F)n(C)c3=O)c(F)cc2Cl)=NO1 (stereo not drawn) [Compound 8, 3-(2-chloro-4-fluoro-5-(3-methyl-2,6-dioxo-4-trifluoromethyl-3,6-dihydropyrimidin-1(2H)-yl)phenyl)-5-methyl-4,5-dihydroisoxazole-5-carboxylic acid ethyl ester] | 8 | 100 | 100 | 50 | 43 | 14 | 0 | 0 | 0 | 0 | 0 | 16 | 100 | 100 | 100 | 100 | 79 | 57 | 0 | 0 | Average % Survival of 14 repetitions ([2]; 64 g ai/ha^−1 postemergence): 0%; Average % Survival of 14 repetitions ([2]; 128 g ai/ha^−1 postemergence): 0%; use rate achieving complete control (i.e. no surviving plants) ([3]; '128G' population, postemergence): 16 g ai/ha^−1; Average % Survival of 14 repetitions ([3]; 0.25 g ai/ha^−1 postemergence): 100%; Average % Survival of 14 repetitions ([3]; 0.5 g ai/ha^−1 postemergence): 100%; Average % Survival of 14 repetitions ([3]; 1 g ai/ha^−1 postemergence): 100%; Average % Survival of 14 repetitions ([3]; 2 g ai/ha^−1 postemergence): 100%; Average % Survival of 14 repetitions ([3]; 4 g ai/ha^−1 postemergence): 93%; Average % Survival of 14 repetitions ([3]; 8 g ai/ha^−1 postemergence): 50%; Average % Survival of 14 repetitions ([3]; 16 g ai/ha^−1 postemergence): 0%; Average % Survival of 14 repetitions ([3]; 32 g ai/ha^−1 postemergence): 0%; Average % Survival of 14 repetitions ([3]; 64 g ai/ha^−1 postemergence): 0%; Average % Survival of 14 repetitions ([3]; 128 g ai/ha^−1 postemergence): 0%
2 | CS(=O)(=O)NC(=O)c1cc(Oc2ccc(C(F)(F)F)cc2Cl)ccc1[N+](=O)[O-] [Fomesafen] | 8 | 100 | 100 | 93 | 71 | 14 | 0 | 0 | 0 | 0 | 0 | 128 | 100 | 100 | 100 | 100 | 100 | 100 | 93 | 43 | Average % Survival of 14 repetitions ([2]; 64 g ai/ha^−1 postemergence): 21%; Average % Survival of 14 repetitions ([2]; 128 g ai/ha^−1 postemergence): 0%; individuals killed ([3]; '128G' population, 128 g ai/ha^−1): 5/14; Average % Survival of 14 repetitions ([3]; 0.25 g ai/ha^−1 postemergence): 100%; Average % Survival of 14 repetitions ([3]; 0.5 g ai/ha^−1 postemergence): 100%; Average % Survival of 14 repetitions ([3]; 1 g ai/ha^−1 postemergence): 100%; Average % Survival of 14 repetitions ([3]; 2 g ai/ha^−1 postemergence): 100%; Average % Survival of 14 repetitions ([3]; 4 g ai/ha^−1 postemergence): 100%; Average % Survival of 14 repetitions ([3]; 8 g ai/ha^−1 postemergence): 100%; Average % Survival of 14 repetitions ([3]; 16 g ai/ha^−1 postemergence): 100%; Average % Survival of 14 repetitions ([3]; 32 g ai/ha^−1 postemergence): 93%; Average % Survival of 14 repetitions ([3]; 64 g ai/ha^−1 postemergence): 36%; Average % Survival of 14 repetitions ([3]; 128 g ai/ha^−1 postemergence): 36%
